According to patent US9133158B2, “Bicyclic dihydroisoquinoline-1-one derivatives” (Hoffmann-La Roche Inc., priority 2011, dated 2015):

How the values were obtained:
human CYP11B2 = target: T1, human CYP11B2 (Homo sapiens, UniProt P19099); assay: G-402 cellular enzyme assay, human CYP11B2 (aldosterone release, HTRF); format: cell-based; details: G-402 cells, 1 μM Deoxycorticosterone
T1 construct: expressed in transfected cells
T1 sequence (P19099 25-503): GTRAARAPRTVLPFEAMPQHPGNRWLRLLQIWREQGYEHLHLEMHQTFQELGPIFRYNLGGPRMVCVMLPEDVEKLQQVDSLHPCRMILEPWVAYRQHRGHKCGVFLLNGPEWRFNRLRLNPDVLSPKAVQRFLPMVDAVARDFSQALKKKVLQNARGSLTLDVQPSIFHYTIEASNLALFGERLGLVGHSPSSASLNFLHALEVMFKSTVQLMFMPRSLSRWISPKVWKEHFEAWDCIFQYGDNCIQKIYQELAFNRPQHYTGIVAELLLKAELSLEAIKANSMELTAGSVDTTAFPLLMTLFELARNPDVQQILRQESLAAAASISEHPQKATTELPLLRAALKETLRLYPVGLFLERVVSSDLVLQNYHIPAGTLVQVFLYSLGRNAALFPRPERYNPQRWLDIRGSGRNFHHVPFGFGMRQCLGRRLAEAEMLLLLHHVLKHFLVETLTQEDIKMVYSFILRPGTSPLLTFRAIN
How it was run: (§1)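 Inhibition of steroid release was taken as enzyme inhibition. CYP11B1 assays used 1 μM deoxycortisol with cortisol detection, CYP11B2 assays 1 μM deoxycorticosterone with aldosterone detection, both by HTRF after 16 h in stable G-402 cells; EC50 from least-squares MMF fit.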

human CYP11B1 = target: T2, human CYP11B1 (Homo sapiens, UniProt P15538); assay: G-402 cellular enzyme assay, human CYP11B1 (cortisol release, HTRF); format: cell-based; details: G-402 cells, 1 μM Deoxycortisol
T2 construct: expressed in transfected cells
T2 sequence (P15538 25-503): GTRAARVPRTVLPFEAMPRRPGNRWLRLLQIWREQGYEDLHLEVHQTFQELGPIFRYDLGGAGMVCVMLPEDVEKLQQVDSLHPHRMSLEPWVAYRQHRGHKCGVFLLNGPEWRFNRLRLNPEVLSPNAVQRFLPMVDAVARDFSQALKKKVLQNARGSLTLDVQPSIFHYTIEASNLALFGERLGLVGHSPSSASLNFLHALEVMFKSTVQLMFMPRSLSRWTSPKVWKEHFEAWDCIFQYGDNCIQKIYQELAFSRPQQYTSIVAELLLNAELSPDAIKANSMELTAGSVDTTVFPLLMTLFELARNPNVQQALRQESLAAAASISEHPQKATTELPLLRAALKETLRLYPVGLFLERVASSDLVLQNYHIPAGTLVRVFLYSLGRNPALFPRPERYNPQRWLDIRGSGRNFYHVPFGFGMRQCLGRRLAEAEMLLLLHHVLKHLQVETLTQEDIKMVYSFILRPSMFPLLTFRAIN
How it was run: as §1

Row | SMILES | EC50 (human CYP11B2) [nM] | EC50 (human CYP11B1) [nM]
1 | CC1(C)c2nc(Cl)ccc2C(=O)N1c1cncc(CNc2cc[nH]n2)c1 [Example 383, 2-Chloro-7,7-dimethyl-6-{5-[(1H-pyrazol-3-ylamino)-methyl]-pyridin-3-yl}-6,7-dihydro-pyrrolo[3,4-b]pyridin-5-one] | 21 | 771
2 | COc1ccc2c(n1)C(C)(C)N(c1cncc(CNc3cc[nH]n3)c1)C2=O [Example 384, 2-Methoxy-7,7-dimethyl-6-{5-[(1H-pyrazol-3-ylamino)-methyl]-pyridin-3-yl}-6,7-dihydro-pyrrolo[3,4-b]pyridin-5-one] | 24 | 3160
3 | O=C1c2ccc(Cl)cc2C2(CC2)N1c1cncc(CNc2cc[nH]n2)c1 [Example 386, 6′-Chloro-2′-{5-[(1H-pyrazol-3-ylamino)methyl]pyridin-3-yl}spiro [cyclopropane-1,1′-isoindol]-3′(2′H)-one] | 6 | 418
4 | CCS(=O)(=O)NCc1cncc(N2C(=O)c3ccc(Cl)cc3C2(C)C)c1 [Example 387, Ethanesulfonic acid [5-(6-chloro-1,1-dimethyl-3-oxo-1,3-dihydro-isoindol-2-yl)-pyridin-3-ylmethyl]-amide] | 92.2 | 2840
5 | CCS(=O)(=O)NCc1cncc(N2C(=O)c3ccc(F)cc3C2(C)C)c1 [Example 388, Ethanesulfonic acid [5-(6-fluoro-1,1-dimethyl-3-oxo-1,3-dihydro-isoindol-2-yl)-pyridin-3-ylmethyl]-amide] | 272 | 3970
6 | CCS(=O)(=O)NCc1cncc(N2C(=O)c3ccc(C#N)cc3C2(C)C)c1 [Example 389, Ethanesulfonic acid [5-(6-cyano-1,1-dimethyl-3-oxo-1,3-dihydro-isoindol-2-yl)-pyridin-3-ylmethyl]-amide] | 115 | 2950
7 | CC1(C)c2cc(Cl)ccc2C(=O)N1c1cncc(CNS(C)(=O)=O)c1 [Example 391, N-[5-(6-Chloro-1,1-dimethyl-3-oxo-1,3-dihydro-isoindol-2-yl)-pyridin-3-ylmethyl]-methane-sulfonamide] | 29.7 | 1450
8 | CN(Cc1cncc(N2C(=O)c3ccc(Cl)cc3C2(C)C)c1)S(C)(=O)=O [Example 392, N-[5-(6-Chloro-1,1-dimethyl-3-oxo-1,3-dihydro-isoindol-2-yl)-pyridin-3-ylmethyl]-N-methyl-methane-sulfonamide] | 9.2 | 327
9 | CCS(=O)(=O)NCc1cncc(N2C(=O)c3ccc(F)cc3C23CC3)c1 [Example 393, N-{[5-(6′-Fluoro-3′-oxospiro [cyclopropane-1,1′-isoindol]-2′(3′H)-yl)pyridin-3-yl]methyl} ethane-sulfonamide] | 265 | 8430
10 | CCS(=O)(=O)N(C)Cc1cncc(N2C(=O)c3ccc(F)cc3C23CC3)c1 [Example 394, N-{[5-(6′-Fluoro-3′-oxospiro [cyclopropane-1,1′-isoindol]-2′(3′H)-yl)pyridin-3-yl]methyl}-N-methylethane-sulfonamide] | 45.6 | 2920
11 | CCS(=O)(=O)N(C)Cc1cncc(N2C(=O)c3ccc(Cl)cc3C2(C)C)c1 [Example 395, Ethanesulfonic acid [5-(6-chloro-1,1-dimethyl-3-oxo-1,3-dihydro-isoindol-2-yl)-pyridin-3-ylmethyl]-methyl-amide] | 8 | 679
12 | CCC(=O)NCc1cncc(N2C(=O)c3ccc(Cl)cc3C23CC3)c1 [Example 396, N-{[5-(6′-Chloro-3′-oxospiro [cyclopropane-1,1′-isoindol]-2′(3′H)-yl)pyridin-3-yl]methyl} propanamide] | 207 | 5250
13 | CCC(=O)NCc1cncc(N2C(=O)c3ccc(Cl)cc3C2(C)C)c1 [Example 397, N-[5-(6-Chloro-1,1-dimethyl-3-oxo-1,3-dihydro-isoindol-2-yl)-pyridin-3-ylmethyl]-propionamide] | 282 | 7950
14 | CCC(=O)NCc1cncc(N2C(=O)c3ccc(F)cc3C2(C)C)c1 [Example 398, N-[5-(6-Fluoro-1,1-dimethyl-3-oxo-1,3-dihydro-isoindol-2-yl)-pyridin-3-ylmethyl]-propionamide] | 281 | 2300
15 | CC(=O)NCc1cncc(N2C(=O)c3ccc(Cl)cc3C2(C)C)c1 [Example 400, N-[5-(6-Chloro-1,1-dimethyl-3-oxo-1,3-dihydro-isoindol-2-yl)-pyridin-3-ylmethyl]-acetamide] | 58.9 | 2740
16 | CS(=O)(=O)NCc1cncc(N2C(=O)c3cc(F)ccc3C23CC3)c1 [Example 401, N-{[5-(5′-Fluoro-3′-oxospiro [cyclopropane-1,1′-isoindol]-2′(3′H)-yl)pyridin-3-yl]methyl} methane-sulfonamide] | 360 | 9100
17 | CC1(C)c2cc(C#N)ccc2C(=O)N1c1cncc(CNS(C)(=O)=O)c1 [Example 402, N-[5-(6-Cyano-1,1-dimethyl-3-oxo-1,3-dihydro-isoindol-2-yl)-pyridin-3-ylmethyl]-methane-sulfonamide] | 34.2 | 2210
18 | CC1(C)c2cc(F)ccc2C(=O)N1c1cncc(CNS(C)(=O)=O)c1 [Example 403, N-[5-(6-Fluoro-1,1-dimethyl-3-oxo-1,3-dihydro-isoindol-2-yl)-pyridin-3-ylmethyl]-methane-sulfonamide] | 31.7 | 1930
19 | CS(=O)(=O)NCc1cncc(N2C(=O)c3ccc(F)cc3C23CC3)c1 [Example 404, N-{[5-(6′-Fluoro-3′-oxospiro [cyclopropane-1,1′-isoindol]-2′(3′H)-yl)pyridin-3-yl]methyl} methane-sulfonamide] | 298 | 5480
20 | CC1(C)c2ccc(F)cc2C(=O)N1c1cncc(CNS(C)(=O)=O)c1 [Example 406, N-[5-(5-Fluoro-1,1-dimethyl-3-oxo-1,3-dihydro-isoindol-2-yl)-pyridin-3-ylmethyl]-methane-sulfonamide] | 165 | 3150
21 | CC1(C)c2ccc(Cl)cc2C(=O)N1c1cncc(CNS(C)(=O)=O)c1 [Example 408, N-[5-(5-Chloro-1,1-dimethyl-3-oxo-1,3-dihydro-isoindol-2-yl)-pyridin-3-ylmethyl]-methane-sulfonamide] | 923 | 14300
22 | CC1(C)c2cc(Cl)ccc2C(=O)N1c1cncc(CN2CCCS2(=O)=O)c1 [Example 409, 5-Chloro-2-[5-(1,1-dioxo-1λ6-isothiazolidin-2-ylmethyl)-pyridin-3-yl]-3,3-dimethyl-2,3-dihydro-isoindol-1-one] | 6.9 | 429
23 | CC1(C)c2cc(Cl)ccc2C(=O)N1c1cncc(CN2CCCCC2=O)c1 [Example 410, 5-Chloro-3,3-dimethyl-2-[5-(2-oxo-piperidin-1-ylmethyl)-pyridin-3-yl]-2,3-dihydro-isoindol-1-one] | 16.5 | 1730
24 | CC1(C)c2cc(Cl)ccc2C(=O)N1c1cncc(CN2CCNC2=O)c1 [Example 411, 5-Chloro-3,3-dimethyl-2-[5-(2-oxo-imidazolidin-1-ylmethyl)-pyridin-3-yl]-2,3-dihydro-isoindol-1-one] | 19.6 | 772
25 | CC1(C)c2cc(Cl)ccc2C(=O)N1c1cncc(CN2CCOC2=O)c1 [Example 412, 5-Chloro-3,3-dimethyl-2-[5-(2-oxo-oxazolidin-3-ylmethyl)-pyridin-3-yl]-2,3-dihydro-isoindol-1-one] | 46.6 | 1670
26 | CC1(C)c2cc(Cl)ccc2C(=O)N1c1cncc(CN2CCCC2=O)c1 [Example 413, 5-Chloro-3,3-dimethyl-2-[5-(2-oxo-pyrrolidin-1-ylmethyl)-pyridin-3-yl]-2,3-dihydro-isoindol-1-one] | 20.7 | 813
27 | CN1CCN(Cc2cncc(N3C(=O)c4ccc(Cl)cc4C3(C)C)c2)C1=O [Example 414, 5-Chloro-3,3-dimethyl-2-[5-(3-methyl-2-oxo-imidazolidin-1-ylmethyl)-pyridin-3-yl]-2,3-dihydro-isoindol-1-one] | 30.2 | 2040
28 | CC1(C)c2cc(Cl)ccc2C(=O)N1c1cncc(CN2CCCCS2(=O)=O)c1 [Example 415, 5-Chloro-2-[5-(1,1-dioxo-1λ6-[1,2]thiazinan-2-ylmethyl)-pyridin-3-yl]-3,3-dimethyl-2,3-dihydro-isoindol-1-one] | 5.5 | 484
